Assays:
Experiment in all cases: relative viability (nuclei count vs DMSO), 5 days (fraction); higher = more cells survive
ChaGo-K-1 = test system: ChaGo-K-1
Summary of the method: (§1)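 One day after seeding in 1536-well plates, lung cancer cell lines were dosed by pin tool. Dosing was either single-drug or a fixed anchor-drug dose plus five library-drug doses (not always all listed) in √10 steps. After 5 days, nuclei were stained in one fix-and-stain step and counted on 4× images, and relative viability is the nuclei count of treated wells over that of vehicle wells, given as the median of duplicate plates.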

EMC-BAC-2 = test system: EMC-BAC-2
Summary of the method: as §1

EPLC-272H = test system: EPLC-272H
Summary of the method: as §1

H3255 = test system: H3255
Summary of the method: as §1

HCC-44 = test system: HCC-44
Summary of the method: as §1

HCC-827 = test system: HCC-827
Summary of the method: as §1

LCLC-103H = test system: LCLC-103H
Summary of the method: as §1

LCLC-97TM1 = test system: LCLC-97TM1
Summary of the method: as §1

NCI-H1355 = test system: NCI-H1355
Summary of the method: as §1

NCI-H1395 = test system: NCI-H1395
Summary of the method: as §1

NCI-H1651 = test system: NCI-H1651
Summary of the method: as §1

NCI-H1793 = test system: NCI-H1793
Summary of the method: as §1

NCI-H1944 = test system: NCI-H1944
Summary of the method: as §1

NCI-H1993 = test system: NCI-H1993
Summary of the method: as §1

NCI-H2085 = test system: NCI-H2085
Summary of the method: as §1

NCI-H2087 = test system: NCI-H2087
Summary of the method: as §1

NCI-H23 = test system: NCI-H23
Summary of the method: as §1

NCI-H2405 = test system: NCI-H2405
Summary of the method: as §1

NCI-H322M = test system: NCI-H322M
Summary of the method: as §1

NCI-H650 = test system: NCI-H650
Summary of the method: as §1

`C[C@@H]1CN(CC(=O)Nc2ccc3c(c2)Cc2cccc(-c4cc(=O)cc(N5CCOCC5)o4)c2S3)C[C@H](C)O1` + NC(=O)Nc1cc(-c2cccc(F)c2)sc1C(=O)N[C@H]1CCCNC1 [AZD7762] (partner 0.2 µM) was tested, and the relative viability (ChaGo-K-1; first compound 0.04 µM) was 0.836, the relative viability (ChaGo-K-1; first compound 0.1265 µM) was 0.855 and the relative viability (ChaGo-K-1; first compound 0.4 µM) was 0.847. The relative viability (ChaGo-K-1; first compound 4 µM) was 0.799, the relative viability (EMC-BAC-2; first compound 0.04 µM) was 1.1 and the relative viability (EMC-BAC-2; first compound 0.1265 µM) was 1.15. For the same compound, the relative viability (EMC-BAC-2; first compound 0.4 µM) was 1.08, the relative viability (EMC-BAC-2; first compound 4 µM) was 1.24 and the relative viability (EPLC-272H; first compound 0.04 µM) was 0.237. For the same compound, the relative viability (EPLC-272H; first compound 0.1265 µM) was 0.348, the relative viability (EPLC-272H; first compound 0.4 µM) was 0.226 and the relative viability (EPLC-272H; first compound 4 µM) was 0.321. For the same compound, the relative viability (H3255; first compound 0.04 µM) was 0.792, the relative viability (H3255; first compound 0.1265 µM) was 0.765 and the relative viability (H3255; first compound 0.4 µM) was 0.943. It also gave a relative viability (H3255; first compound 4 µM) of 0.725, a relative viability (HCC-44; first compound 0.04 µM) of 0.945 and a relative viability (HCC-44; first compound 0.1265 µM) of 1.01. It also gave a relative viability (HCC-44; first compound 0.4 µM) of 1, a relative viability (HCC-44; first compound 4 µM) of 0.913 and a relative viability (HCC-827; first compound 0.04 µM) of 0.205. It also gave a relative viability (HCC-827; first compound 0.1265 µM) of 0.188, a relative viability (HCC-827; first compound 0.4 µM) of 0.201 and a relative viability (HCC-827; first compound 4 µM) of 0.161. For the same compound, the relative viability (LCLC-103H; first compound 0.04 µM) was 0.798, the relative viability (LCLC-103H; first compound 0.1265 µM) was 0.755 and the relative viability (LCLC-103H; first compound 0.4 µM) was 0.761. It also gave a relative viability (LCLC-103H; first compound 4 µM) of 0.631, a relative viability (LCLC-97TM1; first compound 0.1265 µM) of 0.222 and a relative viability (LCLC-97TM1; first compound 0.4 µM) of 0.231. It also gave a relative viability (LCLC-97TM1; first compound 4 µM) of 0.221, a relative viability (NCI-H1355; first compound 0.04 µM) of 0.799 and a relative viability (NCI-H1355; first compound 0.1265 µM) of 0.682. The relative viability (NCI-H1355; first compound 0.4 µM) was 0.671, the relative viability (NCI-H1355; first compound 4 µM) was 0.62 and the relative viability (NCI-H1395; first compound 0.1265 µM) was 0.425. The relative viability (NCI-H1395; first compound 0.4 µM) was 0.411, the relative viability (NCI-H1395; first compound 4 µM) was 0.406 and the relative viability (NCI-H1651; first compound 0.04 µM) was 0.428. The relative viability (NCI-H1651; first compound 0.1265 µM) was 0.405, the relative viability (NCI-H1651; first compound 0.4 µM) was 0.464 and the relative viability (NCI-H1651; first compound 4 µM) was 0.38. For the same compound, the relative viability (NCI-H1793; first compound 0.04 µM) was 0.588, the relative viability (NCI-H1793; first compound 0.1265 µM) was 0.514 and the relative viability (NCI-H1793; first compound 0.4 µM) was 0.404. It also gave a relative viability (NCI-H1793; first compound 4 µM) of 0.25, a relative viability (NCI-H1944; first compound 0.1265 µM) of 0.561 and a relative viability (NCI-H1944; first compound 0.4 µM) of 0.605. For the same compound, the relative viability (NCI-H1944; first compound 4 µM) was 0.396, the relative viability (NCI-H1993; first compound 0.04 µM) was 0.752 and the relative viability (NCI-H1993; first compound 0.1265 µM) was 0.737. It also gave a relative viability (NCI-H1993; first compound 0.4 µM) of 0.611, a relative viability (NCI-H1993; first compound 4 µM) of 0.55 and a relative viability (NCI-H2085; first compound 0.04 µM) of 0.959. For the same compound, the relative viability (NCI-H2085; first compound 0.1265 µM) was 1.06, the relative viability (NCI-H2085; first compound 0.4 µM) was 0.997 and the relative viability (NCI-H2085; first compound 4 µM) was 0.796. For the same compound, the relative viability (NCI-H2087; first compound 0.04 µM) was 1.26, the relative viability (NCI-H2087; first compound 0.1265 µM) was 1.17 and the relative viability (NCI-H2087; first compound 0.4 µM) was 1.46. The relative viability (NCI-H2087; first compound 4 µM) was 0.954, the relative viability (NCI-H23; first compound 0.04 µM) was 0.238 and the relative viability (NCI-H23; first compound 0.1265 µM) was 0.22. For the same compound, the relative viability (NCI-H23; first compound 0.4 µM) was 0.226, the relative viability (NCI-H23; first compound 4 µM) was 0.18 and the relative viability (NCI-H2405; first compound 0.04 µM) was 0.703. For the same compound, the relative viability (NCI-H2405; first compound 0.1265 µM) was 0.795, the relative viability (NCI-H2405; first compound 0.4 µM) was 0.792 and the relative viability (NCI-H2405; first compound 4 µM) was 0.676. For the same compound, the relative viability (NCI-H322M; first compound 0.04 µM) was 0.527, the relative viability (NCI-H322M; first compound 0.1265 µM) was 0.546 and the relative viability (NCI-H322M; first compound 0.4 µM) was 0.702. The relative viability (NCI-H322M; first compound 4 µM) was 0.56, the relative viability (NCI-H650; first compound 0.04 µM) was 0.981 and the relative viability (NCI-H650; first compound 0.1265 µM) was 0.853. The relative viability (NCI-H650; first compound 0.4 µM) was 1.21 and the relative viability (NCI-H650; first compound 4 µM) was 0.895.

Source: the supplement of paper PMC10307832
